For 29 compounds, IC50 results are on record in patent US9145414B2, “1,2,4-triazine-6-carboxamide derivative” (TAIHO PHARMACEUTICAL CO., LTD., priority 2011, dated 2015).

The target in one experiment is human Syk protein (Homo sapiens (Human), UniProt P43405). As to the kind of experiment: Syk kinase inhibition test. The class given is biochemical. As to conditions: Table 95; read-out: SYK inhibitory activity IC50. As for the experimental part:
Finally, phosphorylated peptides and non-phosphorylated peptides were separated therebetween using LabChip™ 3000 system (Caliper Life Sciences, Inc., excitation wavelength: 488 nm, detection wavelength: 530 nm). Their respective amounts were measured, and the rate of phosphorylation reaction was then determined from the ratio between the amounts. The concentration at which the compound can inhibit 50% phosphorylation reaction is defined as an IC50 value (μM).
Also, known 1,2,4-triazine-6-carboxamide derivatives A, B, and C (WO2000/075113 (A: compound No. 121 and B: compound No. 154) and WO2000/076980 (C: compound No. 39)) were synthesized as control compounds. Their IC50 values (μM) were calculated in the same way as above and then compared with that of the compound of the present invention.

Experiment [1] has as its system SU-DHL-6 cells (diffuse large-cell lymphoma cell line). As to the kind of experiment: Cell growth inhibition test. The class given is cell-based. As to conditions: read-out: Cell growth inhibition IC50. As for the experimental part: The compound of the present invention was serially diluted with dimethyl sulfoxide and then added to an RPMI1640 medium containing 10% FBS. Each resulting solution was added at a concentration of 100 μl/well to the preceding SU-DHL-6 cell culture plate (final concentration of the compound: 10, 3, 1, 0.3, 0.1, 0.03, 0.01, and 0.003 μM). The cells were cultured at 37° C. for 3 days in an incubator containing 5% CO2. The cells thus cultured were left at room temperature for 30 minutes and then centrifuged at 1500 rpm for 3 minutes using a centrifuge (Hitachi Koki Co., Ltd., Himac CF7D2). A 100 μl aliquot of the supernatant was removed from each well to allow 100 μl of the cell culture solution to remain therein. This 100 μl of the remaining cell culture solution was supplemented with an equal amount of CellTiter-Glo Luminescent Cell Viability Assay (Promega KK, Cat#: G7573), and the mixture was then shaken for 1 minute using a plate mixer. The reaction solution was left in the dark for 10 minutes. Then, luminescence intensity derived from live cells of each well was measured using a microplate reader (PerkinElmer Inc., ARVOsx). […] Likewise, the IC50 values (μM) of the control compounds were also calculated and then compared with that of the compound of the present invention. Rate of cell growth inhibition(%)=(C−T)/C×100 T: luminescence intensity (count per second) of a well supplemented with the test compound C: luminescence intensity (count per second) of a well non-supplemented with the test compound

Where [2] appears, read: SU-DHL-6 cells, 3 days culture, Table 96.
Where [3] appears, read: Homo sapiens, 72 h, SU-DHL-6 cells, 3 days culture, Table 96.

Read-outs that look alike come from different tables or passages of the source. A value given as a limit tells only on which side of the number the result lay.

For the compound `NC(=O)c1ccc(NC2CCCCC2N)cc1Nc1ccccc1Br` (stereo not shown) [A, reference compound], the IC50 (as a rule, the midpoint of a concentration-inhibition curve) on human Syk protein was found to be 33 nM; in experiment [1] (setting [2]) it was 2000 nM.

Take `NC(=O)c1ccc(NC2CCCCC2N)cc1Nc1cccc2c1OCO2` (stereo not shown) [B, reference compound]: the IC50 on human Syk protein is 6.8 nM; in experiment [1] (setting [2]), 1900 nM.

Turning to `Cc1cccc(Nc2cc(NCCN(C)C)ccc2C(N)=O)c1` [C, reference compound], the values for the IC50 (on human Syk protein; in experiment [1] (setting [2])) were 620 nM and more than 10000 nM, respectively.

Consider `Cn1ccc2c(Nc3nc(N[C@@H]4CCCC[C@@H]4N)nnc3C(N)=O)cccc21` [Example 3, 3-((1R,2S)-2-aminocyclohexylamino)-5-(1-methyl-H-indol-4-ylamino)-1,2,4-triazine-6-carboxamide], for which the IC50 at human Syk protein was found to be 0.36 nM; in experiment [1] (setting [3]) it was 91 nM.

`[2H]C([2H])([2H])C([2H])([2H])n1ncc2cc(Nc3nc(N[C@H]4CCCNC4)nnc3C(N)=O)ccc21` [Example 7, (S)-5-(1-(ethyl-d5)-1H-indazol-5-ylamino)-3-(piperidin-3-ylamino)-1,2,4-triazine-6-carboxamide diformate]: the IC50 on human Syk protein is 0.92 nM; in experiment [1] (Homo sapiens, SU-DHL-6, 72 h) it was 174 nM.

On to `CCn1ccc2c(Nc3nc(N[C@@H]4CCCC[C@@H]4N)nnc3C(N)=O)cccc21` [Example 17, 3-((1R,2S)-2-aminocyclohexylamino)-5-(1-ethyl-1H-indol-4-ylamino)-1,2,4-triazine-6-carboxamide], for which, in experiment [1] (setting [3]), the concentration for half-maximal inhibition (IC50) was determined as 76 nM.

Consider `Cn1ccc(-n2ccc3c(Nc4nc(N[C@@H]5CCCC[C@@H]5N)nnc4C(N)=O)cccc32)n1` [Example 25, 3-((1R,2S)-2-aminocyclohexylamino)-5-(1-(1-methyl-1H-pyrazol-3-yl)-1H-indol-4-ylamino)-1,2,4-triazine-6-carboxamide], for which the IC50 at human Syk protein was found to be 0.36 nM; in experiment [1] (setting [3]) it was 100 nM.

Regarding `NC(=O)c1nnc(N[C@@H]2CCCC[C@@H]2N)nc1Nc1cccc2c1ccn2C(F)F` [Example 26, 3-((1R,2S)-2-aminocyclohexylamino)-5-(1-(difluoromethyl)-1H-indol-4-ylamino)-1,2,4-triazine-6-carboxamide], the IC50 at human Syk protein was found to be 0.22 nM; in experiment [1] (setting [3]), 41 nM.

As for `NC(=O)c1nnc(N[C@@H]2CCCC[C@@H]2N)nc1Nc1cccc2c1ccn2C1COC1` [Example 34, 3-((1R,2S)-2-aminocyclohexylamino)-5-(1-(oxetan-3-yl)-H-indol-4-ylamino)-1,2,4-triazine-6-carboxamide], the values for the IC50 (at human Syk protein; in experiment [1] (setting [3])) were 0.42 nM and 65 nM, respectively.

As for `NC(=O)c1nnc(N[C@@H]2CCCC[C@@H]2N)nc1Nc1cccc2c1ccn2CCF` [Example 35, 3-((1R,2S)-2-aminocyclohexylamino)-5-(1-(2-fluoroethyl)-1H-indol-4-ylamino)-1,2,4-triazine-6-carboxamide], the IC50 came out at 0.51 nM on human Syk protein and 107 nM in experiment [1] (setting [3]).

Turning to `NC(=O)c1nnc(N[C@@H]2CCCC[C@@H]2N)nc1Nc1ccc2nn(C(F)F)cc2c1` [Example 57, 3-((1R,2S)-2-aminocyclohexylamino)-5-(2-(difluoromethyl)-2H-indazol-5-ylamino)-1,2,4-triazine-6-carboxamide], the IC50 came to 0.52 nM on human Syk protein and 179 nM in experiment [1] (setting [3]).

Regarding `Cc1cc(Nc2nc(N[C@@H]3CCCC[C@@H]3N)nnc2C(N)=O)c2ccn(C)c2c1` [Example 60, 3-(((1R,2S)-2-aminocyclohexyl)amino)-5-((1,6-dimethyl-1H-indol-4-yl)amino)-1,2,4-triazine-6-carboxamide], the IC50 is 0.33 nM at human Syk protein and 106 nM in experiment [1] (setting [3]).

On to `Cc1cc(Nc2nc(N[C@@H]3CCOC[C@@H]3N)nnc2C(N)=O)cc2cn(C(C)(C)C)nc12` [Example 61, 3-(((3R,4R)-3-aminotetrahydro-2H-pyran-4-yl)amino)-5-((2-(tert-butyl)-7-methyl-2H-indazol-5-yl)amino)-1,2,4-triazine-6-carboxamide], for which the IC50 was found to be 0.37 nM on human Syk protein and 164 nM in experiment [1] (setting [3]).

For the compound `Cn1cc2cc(Nc3nc(N[C@@H]4CCCC[C@@H]4N)nnc3C(N)=O)cc(-c3ccccc3)c2n1` [Example 65, 3-(((1R,2S)-2-aminocyclohexyl)amino)-5-((2-methyl-7-phenyl-2H-indazol-5-yl)amino)-1,2,4-triazine-6-carboxamide], the IC50 on human Syk protein was determined as 0.23 nM; in experiment [1] (setting [3]), 24 nM.

In the case of `Cn1cc(-n2ccc3c(Nc4nc(N[C@@H]5CCCC[C@@H]5N)nnc4C(N)=O)cccc32)cn1` [Example 67, 3-(((1R,2S)-2-aminocyclohexyl)amino)-5-((1-(1-methyl-1H-pyrazol-4-yl)-1H-indol-4-yl)amino)-1,2,4-triazine-6-carboxamide], the figures for the IC50 (on human Syk protein; in experiment [1] (setting [3])) were 0.26 nM and 49 nM, respectively.

Take `NC(=O)c1nnc(N[C@@H]2CCCC[C@@H]2N)nc1Nc1cccc2c1ccn2[C@H]1CC[C@H](O)CC1` [Example 73, 3-(((1R,2S)-2-aminocyclohexyl)amino)-5-((1-(trans-4-hydroxycyclohexyl)-1H-indol-4-yl)amino)-1,2,4-triazine-6-carboxamide]: the half-inhibitory concentration (IC50) at human Syk protein came out at 0.37 nM; in experiment [1] (setting [3]) it was 53 nM.

As to `NC(=O)c1nnc(N[C@@H]2CCCC[C@@H]2N)nc1Nc1cc(-c2ccccn2)cs1` [Example 77, 3-(((1R,2S)-2-aminocyclohexyl)amino)-5-((4-(pyridin-2-yl)thiophen-2-yl)amino)-1,2,4-triazine-6-carboxamide], the IC50 on human Syk protein came out at 0.42 nM; in experiment [1] (setting [3]) it was 82 nM.

As for `Cc1cc(Nc2nc(N[C@@H]3CCCC[C@@H]3N)nnc2C(N)=O)c2ccn([C@H]3CC[C@H](O)CC3)c2c1` [Example 78], the results for the IC50 (at human Syk protein; in experiment [1] (setting [3])) were 0.53 nM and 85 nM, respectively.

Take `Cc1cc(Nc2nc(N[C@@H]3CCOC[C@@H]3N)nnc2C(N)=O)cc2cn(C(C)(C)CO)nc12` [Example 99, 3-(((3R,4R)-3-aminotetrahydro-2H-pyran-4-yl)amino)-5-((2-(1-hydroxy-2-methylpropan-2-yl)-7-methyl-2H-indazol-5-yl)amino)-1,2,4-triazine-6-carboxamide]: the 50% inhibitory concentration (IC50) at human Syk protein is 0.63 nM.

For `CC(C)(C)n1cc2cc(Nc3nc(N[C@@H]4CCOC[C@@H]4N)nnc3C(N)=O)cc(Cl)c2n1` [Example 100, 3-(((3R,4R)-3-aminotetrahydro-2H-pyran-4-yl)amino)-5-((2-(tert-butyl)-7-chloro-2H-indazol-5-yl)amino)-1,2,4-triazine-6-carboxamide], the IC50 at human Syk protein is 0.41 nM.

In the case of `Cn1ccc(-n2ccc3c(Nc4nc(NCC5(N)CCC5)nnc4C(N)=O)cccc32)n1` [Example 106, 3-(((1-aminocyclobutyl)methyl)amino)-5-((1-(1-methyl-1H-pyrazol-3-yl)-1H-indol-4-yl)amino)-1,2,4-triazine-6-carboxamide], on human Syk protein, the IC50 turned out to be 0.85 nM.

Consider `CCn1ncc2c(Nc3nc(N[C@@H]4CCCC[C@@H]4N)nnc3C(N)=O)cccc21` [Example 107, 3-(((1R,2S)-2-aminocyclohexyl)amino)-5-((1-ethyl-1H-indazol-4-yl)amino)-1,2,4-triazine-6-carboxamide], for which the IC50 on human Syk protein is 0.61 nM.

As to `N#Cc1cc(Nc2nc(N[C@@H]3CCCC[C@@H]3N)nnc2C(N)=O)c2ccsc2c1` [Example 208], the IC50 on human Syk protein worked out at 0.4 nM.

Consider `NC(=O)c1nnc(N[C@@H]2CCCC[C@@H]2N)nc1Nc1cccc2nn(C(F)F)cc12` [Example 209], for which the 50% inhibitory concentration (IC50) at human Syk protein amounted to 0.33 nM.

On to `CCOC[C@H](N)[C@@H](C)Nc1nnc(C(N)=O)c(Nc2cc(C)c3ncccc3c2)n1` [Example 282], for which, at human Syk protein, the IC50 came out at 0.48 nM.

`COC[C@H](N)[C@@H](C)Nc1nnc(C(N)=O)c(Nc2cc(C)c3c(cnn3C(C)C)c2)n1` [Example 284]: the IC50 on human Syk protein turned out to be 0.34 nM.

As to `CCn1ncc2c(C)cc(Nc3nc(N[C@@H]4CCOC[C@@H]4N)nnc3C(N)=O)cc21` [Example 310], the IC50 on human Syk protein is 0.59 nM.

On to `CCn1ncc2cc(Nc3nc(N[C@H](C)[C@@H](N)COC)nnc3C(N)=O)cc(C)c21` [Example 311, 3-(((2R,3R)-3-amino-4-methoxybutan-2-yl)amino)-5-((1-ethyl-7-methyl-1H-indazol-5-yl)amino)-1,2,4-triazine-6-carboxamide], for which the IC50 at human Syk protein worked out at 0.55 nM.

Turning to `CCn1cc2ccc(Nc3nc(N[C@@H]4CCCCC[C@@H]4N)nnc3C(N)=O)cc2n1` [Example 316, 3-(((1R,2S)-2-aminocycloheptyl)amino)-5-((2-ethyl-2H-indazol-6-yl)amino)-1,2,4-triazine-6-carboxamide], at human Syk protein, the IC50 stood at 0.31 nM.
